± gives the expanded uncertainty stated by the source.
Assay: excess molar enthalpy (molar enthalpy of mixing); xn = mol fraction of the nth substance listed
Conditions: 101 kPa, Crystal, Calvet calorimetry

Structure (SMILES): O=[N+]([O-])[O-].[Rb+] [rubidium nitrate] + O=[N+]([O-])[O-].[Cs+]
- excess molar enthalpy (298.15 K, x1 = 0.1): 0.12 ± 0.0478 kcal/mol
- excess molar enthalpy (298.15 K, x1 = 0.23): 0.263 ± 0.0478 kcal/mol
- excess molar enthalpy (298.15 K, x1 = 0.32): 0.287 ± 0.0478 kcal/mol
- excess molar enthalpy (298.15 K, x1 = 0.5): 0.335 ± 0.0478 kcal/mol
- excess molar enthalpy (298.15 K, x1 = 0.57): 0.335 ± 0.0478 kcal/mol
- excess molar enthalpy (298.15 K, x1 = 0.65): 0.311 ± 0.0478 kcal/mol
- excess molar enthalpy (298.15 K, x1 = 0.68): 0.287 ± 0.0478 kcal/mol
- excess molar enthalpy (298.15 K, x1 = 0.8): 0.215 ± 0.0478 kcal/mol
- excess molar enthalpy (473.15 K, x1 = 0.16): 0.0619 ± 0.0134 kcal/mol
- excess molar enthalpy (473.15 K, x1 = 0.36): 0.132 ± 0.0287 kcal/mol
- excess molar enthalpy (473.15 K, x1 = 0.5): 0.139 ± 0.0287 kcal/mol
- excess molar enthalpy (473.15 K, x1 = 0.73): 0.103 ± 0.022 kcal/mol

Reference: the NIST ThermoML archive (doi:10.1016/j.jct.2014.07.024)
